# Experimental data: patent publication US20240043410A1, “SULPHAMOYL UREA DERIVATIVES CONTAINING ALKYL-OXACYCLOALKYL MOIETY AND USES THEREOF” (NodThera Limited, priority 2020, published 2024)
# Structures can show the parent of a compound that is named as a salt.
# System: IL-1β release upon NLRP3 activation in peripheral blood mononuclear cells (PBMC)
# Experiment: PBMC IC50 Determination Assay
# Assay type: cell-based
# Details: Homo sapiens; LPS-primed PBMC stimulated with ATP (5 mM) or nigericin (10 μM); IL-1β by ELISA (Protocol A) or HTRF (Protocol B); salts tested
# Protocol: PBMC IC50 Determination Assay. The compounds of the present disclosure were tested for their inhibitory activity against IL-1β release upon NLRP3 activation in peripheral blood mononuclear cells (PBMC).
# Protocol A. PBMC were isolated from buffy coats by density gradient centrifugation on Histopaque-1077 (Sigma, cat no. 10771). Isolated cells were seeded into the wells of a 96-well plate and incubated for 3 h with lipopolysaccharide (LPS). Following medium exchange, the compounds of the present disclosure were added (a single compound per well) and the cells were incubated for 30 min. Next, the cells were stimulated either with ATP (5 mM) or nigericin (10 μM) for 1 h and the cell culture media from the wells were collected for further analysis. The release of IL1-β into the media was determined by a quantitative detection of IL-1β in the media using an IL-1β enzyme-linked immunosorbent assay (ELISA) Ready-SET-Go!, eBioscience cat. No. 88-7261-88. Briefly, in a first step, high affinity binding plates (Corning, Costar 9018 or NUNC Maxisorp Cat No. 44-2404) were coated overnight at 4° C. with specific capture antibody included in the kit (anti-human IL-1β ref. 14-7018-68). Subsequently, plates were blocked with blocking buffer for 1 h at room temperature (rt) and after washing with a buffer (PBS with 0.05% Tween-20) incubated with protein standard and culture media. After 2 h of incubation at rt, plates were washed and incubated with biotinylated detection antibody included in the kit (anti-human IL-1β Biotin ref. 33-7110-68) for 1 h at rt. Plates were washed and incubated with HRP-streptavidin for 30 min at rt and washed again. The signal was developed after addition of 3,3′,5,5′-tetramethylbenzidine-peroxidase (TMB) until colour appeared and the reaction was stopped by 2 M H2SO4. A microplate spectrophotometer (BioTek) was used to detect signals with 450 nm. The detection range of IL-1β 3 ELISA was 2-150 ng/mL.
# Protocol B. PBMC were isolated from buffy coats by density gradient centrifugation on Histopaque-1077 (Sigma, cat no. 10771). Isolated cells were seeded into the wells (280,000 cells/well) of a 96-well plate and incubated for 3 h with lipopolysaccharide (LPS, 1 μg/mL diluted 1000× from a 1 mg/mL stock solution). The compounds of the present disclosure were added (a single compound per well) and the cells were incubated for 30 min. Next, the cells were stimulated with ATP (5 mM final concentration diluted 20× from a 100 mM stock solution) for 1 h and the cell culture media from the wells were collected for further analysis. The release of IL-1β into the media was determined by quantitative detection of IL-1 in the media using HTRF®, CisBio cat. No. 62HIL1BPEH. Briefly, cell culture supernatant were dispensed directly into the assay plate containing antibodies labelled with the HTRF® donor and acceptor. A microplate spectrophotometer (BMG) was used to detect signals at 655 nm and 620 nm. The detection range of IL-1β HTRF® was […].
row,Structure (SMILES),IC50 [nM]
1,Cn1cc(N(CC2CCCO2)S(=O)(=O)NC(=O)Nc2c3c(cc4c2CCC4)CCC3)cn1 (stereo not shown) [Compound 1],< 100
2,"Cn1cc(N(C[C@H]2C[C@H](O)CO2)S(=O)(=O)NC(=O)Nc2c3c(cc4c2CCC4)CCC3)cn1 [Compound 2B, 1-(1,2,3,5,6,7-Hexahydro-s-indacen-4-yl)-3-[[(2R,4S)-4-hydroxytetrahydro-furan-2-yl]methyl-(1-methylpyrazol-4-yl)sulfamoyl]urea, sodium salt]",100 to 1000
3,"Cn1cc(N(C[C@@H]2C[C@H](O)CO2)S(=O)(=O)NC(=O)Nc2c3c(cc4c2CCC4)CCC3)cn1 (relative stereo) [Compound 2A, Sodium ((1,2,3,5,6,7-hexahydro-s-indacen-4-yl)carbamoyl)(N-((cis-4-hydroxy-tetrahydrofuran-2-yl)methyl)-N-(1-methyl-1H-pyrazol-4-yl)sulfamoyl)amide]",< 100
4,"O=C(Nc1c2c(cc3c1CCC3)CCC2)NS(=O)(=O)N(C[C@@H]1CCCO1)c1cn[nH]c1 [Compound 8A, 1-(1,2,3,5,6,7-hexahydro-s-indacen-4-yl)-3-[1H-pyrazol-4-yl-[[(2S)-tetrahydrofuran-2-yl]methyl]sulfamoyl]urea]",< 100
